According to patent publication US7034059B2, “Methods of using norfluoxetine” (Sepracor Inc., priority 2001, dated 2006):
Read-outs that look alike come from different tables or passages of the source.

What was measured:
[1] = system: human lung fibroblast cell line WI-38; assay: Inhibition of IL-1β-induced PGE2 production, whole cell-based assay; conditions: for PGE2 (pg/ml) / PGE2: IL-1β 100 pg/mL, 24 hours; for IC50: Homo sapiens; for anti-inflammatory activity in vitro, R- versus S-enantiomer: conclusion from Tables 1-4
Method: Compounds were tested for anti-inflammatory activity using a whole cell-based assay, wherein the human lung fibroblast cell line WI-38 was cultured in Eagle's basal media supplemented with 10% fetal calf serum (FCS) in 48-well tissue culture dishes in a humidified 7% CO2 atmosphere at 37° C. When the cells reached confluence, they were fed with fresh media for 24 hours. The media was removed and fresh media, containing either 5% or 10% FCS, was added to the cells. […] Interleukin-1β (Calbiochem) in 0.1% bovine serum albumin in phosphate buffered saline was added in a 1 μL aliquot to give a final concentration of 100 pg/mL. The cells were cultured for 24 hours and the amount of PGE2 secreted into the cell culture media was assayed using a PGE2 enzyme immunoassay kit (Cayman Chemicals, Ann Arbor, Mich.). Inhibition of PGE2 production is indicative of anti-inflammatory activity.
The IC50 values of enantiomerically pure R- and S-norfluoxetine were determined by incubation of the WI-38 cells with varying concentrations of the compounds in question ([…]). The PGE2 produced for each concentration was plotted against the concentration of compound using the 6 safit 4.0 program (Erithacus software) and the IC50 determined by fitting the data to the 4-parameter equation.

[2] = Serum levels of norfluoxetine after fluoxetine treatment (Prozac package insert); assay type: in vivo; conditions: human, oral, humans, after treatment for 30 days with 40 mg per day of fluoxetine, approximate conversion of ng/ml
Excerpt: It is noteworthy that these values, especially that of R-norfluoxetine, fall within values that may be obtained in serum in humans.

[3] = system: serotonin reuptake; conditions: Physicians' Desk Reference; cited from earlier work
[4] = Table 1, 10% fetal calf serum-containing media, compound 0.5 uM
[5] = Table 1, 10% fetal calf serum-containing media, compound 10 uM
[6] = Table 2, 5% fetal calf serum-containing media, compound 0.5 uM
[7] = Table 2, 5% fetal calf serum-containing media, compound 10 uM
[8] = Table 3, 10% fetal calf serum-containing media, compound 0.5 uM
[9] = Table 3, 10% fetal calf serum-containing media, compound 10 uM
[10] = Table 4, 5% fetal calf serum-containing media, compound 0.5 uM
[11] = Table 4, 5% fetal calf serum-containing media, compound 10 uM

| SMILES | PGE2 (pg/ml) [1, 4] | PGE2 (pg/ml) [1, 5] | PGE2 (pg/ml) [1, 6] | PGE2 (pg/ml) [1, 7] | PGE2 [1, 6] | PGE2 [1, 4] | also measured |
| --- | --- | --- | --- | --- | --- | --- | --- |
| CNCCC(Oc1ccc(C(F)(F)F)cc1)c1ccccc1 (racemic) [rac-fluoxetine, (±)-N-methyl-γ-[4-(trifluoromethyl)-phenoxy]benzenepropanamine] | low | low | low | low |  |  | PGE2 [1, 8]: 545 pg/mL; PGE2 [1, 9]: 156 pg/mL; PGE2 [1, 10]: 22 pg/mL; PGE2 (pg/ml) [1, 11]: low |
| CC(C(=O)O)c1cccc(C(=O)c2ccccc2)c1 (racemic) [rac-ketoprofen, ketoprofen] |  | low |  | low | 119 pg/mL |  |  |
| NCCC(Oc1ccc(C(F)(F)F)cc1)c1ccccc1 (racemic) [rac-norfluoxetine, (±)-γ-[4-(trifluoromethyl)-phenoxy]benzenepropanamine] |  | low | low | low |  | 189 pg/mL | concentration at 30 days [2]: 230 to 830 nM |
| C[C@@H](C(=O)O)c1cccc(C(=O)c2ccccc2)c1 [(R)-ketoprofen] | low | low | low | low |  |  |  |
| NCC[C@@H](Oc1ccc(C(F)(F)F)cc1)c1ccccc1 [(R)-norfluoxetine, R-norfluoxetine] |  |  |  |  | 255 pg/mL | 714 pg/mL | IC50 ([1]; WI-38, read-out: IC50 (PGE2 produced)): ~790 nM; PGE2 [1, 5]: 159 pg/mL; PGE2 [1, 7]: 31 pg/mL; anti-inflammatory activity in vitro, R- versus S-enantiomer [1]: substantially equipotent; potency in inhibiting serotonin uptake [3]: significantly less potent than racemic fluoxetine |
| C[C@H](C(=O)O)c1cccc(C(=O)c2ccccc2)c1 [(S)-ketoprofen] | low | low |  | low | 145 pg/mL |  |  |
| NCC[C@H](Oc1ccc(C(F)(F)F)cc1)c1ccccc1 [(S)-norfluoxetine, S-norfluoxetine] |  |  |  |  | 483 pg/mL | 809 pg/mL | IC50 ([1]; WI-38 cells, 0.009-20 concentrations, 4-parameter fit, read-out: IC50 (PGE2 produced)): ~1400 nM; PGE2 [1, 5]: 486 pg/mL; PGE2 [1, 7]: 112 pg/mL; anti-inflammatory activity in vitro, R- versus S-enantiomer [1]: substantially equipotent; potency in inhibiting serotonin uptake [3]: potent and selective serotonin uptake inhibition |
| Cc1ccc(-c2cc(C(F)(F)F)nn2-c2ccc(S(N)(=O)=O)cc2)cc1 [celebrex] | low | low |  | low | 16 pg/mL |  | PGE2 (pg/ml) [1, 8]: low; PGE2 (pg/ml) [1, 9]: low; PGE2 (pg/ml) [1, 10]: low; PGE2 (pg/ml) [1, 11]: low |
| CNCCC=C1c2ccccc2CCc2ccccc21 [nortriptylene] |  |  |  |  |  |  | PGE2 [1, 8]: 2040 pg/mL; PGE2 [1, 9]: 648 pg/mL; PGE2 [1, 10]: 880 pg/mL; PGE2 [1, 11]: 331 pg/mL |
